We go through 2 molecules from patent US20070237848A1, “MORINDA CITRIFOLIA BASED COMPOSITIONS FOR TREATMENT OF ANTI-INFLAMMATORY DISEASES THROUGH INHIBITION OF COX-1, COX-2, INTERLEUKIN-1beta, INTERLEUKIN-6, TNF-alpha, HLE, AND iNOS” (priority 2005, published 2007).

The structures appear in SMILES notation.

The target of assay [1] is T1, Human Leukocyte Elastase (HLE) (Homo sapiens, UniProt P08246).
T1 sequence (P08246 30-267): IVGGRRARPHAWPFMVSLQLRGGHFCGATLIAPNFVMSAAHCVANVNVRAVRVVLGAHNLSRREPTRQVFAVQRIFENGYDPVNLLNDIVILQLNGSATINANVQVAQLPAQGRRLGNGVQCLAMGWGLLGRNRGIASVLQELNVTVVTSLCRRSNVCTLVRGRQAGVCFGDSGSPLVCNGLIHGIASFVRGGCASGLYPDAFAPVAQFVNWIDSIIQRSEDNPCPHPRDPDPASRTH
As to the kind of experiment: Leukocyte Elastase Assay (p-Nitroaniline, photometric). To be noted: standard reference agent. In kind it is biochemical. The procedure: A Leukocyte Elastase Assay was performed as follows. After preincubating the samples with the enzyme HLE (20 nM) at room temperature for 10 minutes, the reaction was started with an enzyme substrate (5 mM). The reaction time was 15 min at room temperature. The controls [t(0)] were performed without enzyme. […] The quantification of p-Nitroaniline was performed by direct photometrical measurement.
All sample points were measured in duplicate. […] The following tables, charts, and FIGS. 8A and 8B summarize the assay and the results.

In assay [2] the test system is inducible Nitrite Oxide Synthase (iNOS). Briefly: iNOS assay in LPS-stimulated murine macrophages (J774A.1). To be noted: standard reference agent. The class given is cell-based. How it is done: An iNOS Assay was performed as follows. Murine Macrophages (1.5*10^5 cells/well) were seeded for 24 hours. After preincubating the samples with the cells at room temperature for 10 minutes, the reaction was started with 1 μg/ml LPS (E.coli 055:B5). The incubation time was 24 hours at 37° C. and 5% CO 2. The controls [t(0)] were performed without LPS stimulation. The quantification of Nitric Oxide was performed with a Nitric Oxide Colorimetric Assay Kit from BioVision (Art.Nr: #K262-200). The optical densities were measured at λ=570 nm. […] Sample points were measured in triplicate. […] The following tables and charts and FIG. 9 summarize the assay and the results.

Take `C[C@H]1[C@H](C)CC[C@]2(C(=O)O)CC[C@]3(C)C(=CC[C@@H]4[C@@]5(C)CC[C@H](O)C(C)(C)[C@@H]5CC[C@]43C)[C@H]12` [Ursolic acid]: the IC50 in assay [1] is 30 µM.
`COC(=O)[C@@H](N)CCCNC(=N)N[N+](=O)[O-]` [L-NAME]: the midpoint of inhibition in assay [2], the IC50, lay at 600 µM.

As a reminder, the IC50 is the concentration at which inhibition is half-maximal. A low value points to inhibition by little substance.
